In the supplement of paper PMC2824726:
Where “and” joins values, the source holds several entries; their conditions need not be identical. Equal values may be shown once.

Tested on: MDA-MB-231
Test: shRNA barcode abundance ratio t_end/t_zero (depletion over 4 weeks of proliferation) (log2 ratio); higher = less depletion (weaker anti-proliferative effect of the shRNA)
Conditions: time after t zero 28 days
Method: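 Pooled lentiviral negative-selection screen of 305 pGIPZ shRNAs (Open Biosystems V2LHS clones; the 21-nt half-hairpin sense stem is embedded in a mir-30 scaffold) in MDA-MB-231 breast carcinoma cells, infected at MOI 0.3 with 0.5 ug/ml puromycin selection. Barcode abundance was read on barcode tiling microarrays (six 25-nt probes per 60-nt barcode) at t_zero (5 days post-infection) and t_end (33 days; 28 days of culture after t_zero). Values are median-normalised t_end/t_zero signal ratios, averaged over the tiling probes that passed a 10-fold background filter, from three biological replicates.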

| Sequence | shRNA barcode abundance ratio t end/t zero (log2) |
| --- | --- |
| ACTTACACTTAGAAATTAAAT (targeted gene: XIAP) | 0.473 |
| GCACAGGCTTTATCGAGAATA (targeted gene: IGFBP3) | 0.0415 |
| TCAGGAAATGTTATCAGCAAA (targeted gene: BNIP2) | 0.477 |
| CCACCCTGAGCCATTATCTAA (targeted gene: PSEN1) | 0.146 |
| GCTTCCTACAGCACAACAAAT (targeted gene: VEGFA) | 0.437 |
| GGATGCTTCTGAATAGAAATA (targeted gene: BIRC7) | 0.0929 |
| GCTCACTACCAAATGTTAATA (targeted gene: BAD) | 0.223 |
| CGGATTAGGGCATTTGAGAAA (targeted gene: IL7) | 0.319 |
| GGTGACTATACAGTCATTTAA (targeted gene: ATM) | -0.167 |
| TCACACTGGTTCTCAATGAAA (targeted gene: BAG1) | 0.198 |
| CCCTTCTTTGGGAATATAATT (targeted gene: CBX4) | 0.505 |
| GCACATCCTTGCTAATTTCAA (targeted gene: TPT1) | 0.0219 |
| GCGTGCCATGACAAAGGATAA (targeted gene: HSPA8) | -0.885 |
| GGCCCAAGGTCCAAGTAGAAT (targeted gene: HSPA8) | 0.332 |
| CCTTTCTCCAAACCCTCTTAA (targeted gene: BIRC2) | 0.28 |
| CCTTTGAACTTGATTGCCTAT (targeted gene: SFRP1) | -0.127 |
| GCACAACCAGTTCTGCAATAT (targeted gene: TAX1BP1) | 0.565 |
| GGTCACTTTGTATATAGAATT (targeted gene: HBXIP) | 0.371 |
| GCGCAAGAAATCCCGGTATAA (targeted gene: VEGFA) | 0.382 |
| GATGATAGTATTGAAGCAGAT (targeted gene: BNIP2) | 0.366 |
| CGCAGATAGGAGTAGTCTTTA (targeted gene: NFIA) | 0.432 |
| GGATAGACTGGTCTAGAATAA (targeted gene: RALBP1) | 0.174 |

| Sequence | shRNA barcode abundance ratio t end/t zero (log2) |
| --- | --- |
| GCTCTTCATCAGGAGAAATAA (targeted gene: OPA1) | 0.0963 |
| CGACTCTATCAGGGTATAAAT (targeted gene: MSH2) | 0.0312 |
| GGCTAGACTTAGATTCATTAA (targeted gene: VHL) | 0.486 |
| TCAAATTGCGGCACATGTCAT (targeted gene: CD40LG) | -0.0903 |
| GGTGAAGATATATTCCTCCAA (targeted gene: PTEN) | 0.129 |
| GGTCTCCTTAGGGAACATAAA (targeted gene: ATM) | -0.27 |
| TCACAGAGCTTTGTAAGCAAA (targeted gene: NME5) | 0.139 |
| CGTCGTAATCACCACACTGAA (targeted gene: CDH1) | 0.11 |
| GCCTTGAAACATTGATGGAAT (targeted gene: BCL2) | 0.25 |
| CCAGAGGCTTCCACTTAATAT (targeted gene: APAF1) | 0.0519 |
| AGAGAGAACTGCTCAGTAATT (targeted gene: BRE) | 0.237 |
| GGAGTGAGATTGATCTGTTTA (targeted gene: ANXA5) | -0.0616 |
| GGGCATTTGAGAAATGCATAT (targeted gene: IL7) | 0.11 |
| CGTGATTCTAAGAATCTCAAA (targeted gene: IL1A) | 0.666 |
| GCAAAGATCCTGATATCTTAT (targeted gene: RASA1) | 0.278 |
| CGCTACTTCCTCCTCAAGAAT (targeted gene: AKT1) | 0.372 |
| CCACAGATGTTCATAGACAAT (targeted gene: NFKB1) | 0.547 |
| CCATATTTGCATTTGAAGGTA (targeted gene: BCL2A1) | 0.349 |
| CCTACTAACAATATCTGTTAA (targeted gene: SOCS2) | 0.0566 |
| CCTCCGTCCCTCCTACCATAA (targeted gene: MYBL2) | 0.0727 |
| CCAAATTGTGTTTGATGGATT (targeted gene: ESR1) | 0.202 |
| GCACAAGCAGCTGATCCGATT (targeted gene: IL4) | -0.0177 |

| Sequence | shRNA barcode abundance ratio t end/t zero (log2) |
| --- | --- |
| GCGCACAGGCTTTATCGAGAA (targeted gene: IGFBP3) | -0.0187 |
| CCGCAAAGAATCAAGTTGCAA (targeted gene: HSPA8) | -0.446 |
| GGACTCTCTTCTAGAGCCATA (targeted gene: BCL2L2) | 0.635 |
| GGCTTTACTCCGTAACAGATT (targeted gene: RHOA) | -2.14 |
| GCTGAGACAACGTACGACAAA (targeted gene: GDNF) | -0.263 |
| CCTGTTGGTGTCTTTATTATT (targeted gene: CDH1) | 0.164 |
| GCCTGTCCATTGGTGATGTTG (targeted gene: HMGB1) | -0.18 |
| GCCGAAGATTTCACAGTCAAA (targeted gene: IGF1R) | 0.225 |
| CGGGTTTCTCCGGCGTCATTA (targeted gene: PIM1) | 0.0461 and 0.0898 |
| GGGAGGTAAATCAACATATAT (targeted gene: MSH2) | 0.109 |
| GGCCCAAATTATCAAGCTAAT (targeted gene: CRYAB) | -0.348 |
| AAGCGTGCTCTCCGAAGATAA (targeted gene: SORT1) | 0.237 |
| GCCTACTTTCACACTAAGAAA (targeted gene: CASP8) | -0.242 |
| GCACCTTGTTGTCATGAACTT (targeted gene: DAD1) | 0.0822 and 0.0853 |
| GCATCATGCCTTCTGAATAAA (targeted gene: CLN3) | 0.486 |
| GCCTATGACTTTATCATGAAA (targeted gene: ABCB1) | 0.0933 |
| GCAGATTCGTTCAGAGTCTAA (targeted gene: BIRC3) | 0.154 |
| GCGTTTAAGGTGAGCATAAAT (targeted gene: CYP1B1) | -0.142 |
| CCGAATCCGCATGACTCATAA (targeted gene: HDAC1) | 1.63 |
| GCTCACTCTTCAGTCGGAAAT (targeted gene: BCL2L1) | -0.368 |
| GCTGGACAACTTGTTGTTAAA (targeted gene: IL10) | 0.168 |
| CCGTAGCCTCTGCCCTGTAAA (targeted gene: BAG3) | 0.779 |

| Sequence | shRNA barcode abundance ratio t end/t zero (log2) |
| --- | --- |
| GCCGTTAACTAGGTTAATAAA (targeted gene: FANCF) | -0.0468 |
| GCTAACTGTGTGTACATATAT (targeted gene: PEA15) | -0.216 |
| CCATGTAATGGCAGTTATATT (targeted gene: HMGB1) | 0.175 |
| AGCATTGTCATGAGCTTAATA (targeted gene: API5) | 0.169 |
| GCCAATATTGTGTTTGGATAT (targeted gene: MALT1) | 0.354 |
| CCTGCAAACCTTATCCTCTAT (targeted gene: MAPK8IP2) | 0.442 |
| CGCCTTTCCTTAAGGAACAAA (targeted gene: NAIP) | 0.0933 |
| CCGTGCTAACTGTGTGTACAT (targeted gene: PEA15) | -1.15 |
| CCAACTAATCTTCGAATCGAA (targeted gene: SOCS2) | 0.157 |
| TCTGAGGAAGAGATCATCAAA (targeted gene: PEA15) | -0.849 |
| GCAGATTCAAGTCAATCTGAA (targeted gene: NFIA) | 0.355 |
| GATCCTAAGATGTGTTCTTAT (targeted gene: CYP1B1) | 0.664 |
| AGGCAATTTATCTTGATGTGA (targeted gene: FAIM3) | 0.137 |
| GGCATCAGATGAATTGTTAAT (targeted gene: IL3) | 0.161 |
| CATCTCAGTATGCATGGTATA (targeted gene: CFLAR) | -0.976 |
| GGCCCATACCTTCAAATATTA (targeted gene: NFKB1) | 0.381 |
| GGACATCTAGTCACTTGTAAA (targeted gene: XIAP) | 0.00436 |
| CCTTAAATCCTCATTGCAAAT (targeted gene: USP9X) | -0.782 |
| GGACATGACAACTCATCTCAT (targeted gene: IL6) | 0.175 |
| CCAAAGCATTTCATTGAGAAT (targeted gene: TOPORS) | -0.193 |
